Experimental data from the NIST ThermoML archive (doi:10.1021/je300827f).

Experiment: xn = mol fraction of the nth substance listed
Settings: 101 kPa, Liquid; for viscosity: Capillary tube (Ostwald / Ubbelohde) method; for mass density: Vibrating tube method

CCCCCC(C)O (configuration not stated) [2-heptanol] + OCCOCCO
Settings	mass density, 298.15 K [kg/m3]	mass density, 303.15 K [kg/m3]	mass density, 308.15 K [kg/m3]	mass density, 313.15 K [kg/m3]	viscosity, 298.15 K [mPa·s]	viscosity, 303.15 K [mPa·s]	viscosity, 308.15 K [mPa·s]	viscosity, 313.15 K [mPa·s]
x2 = 0	813.2	809.3	805	801.1	5.02	4.15	3.48	2.85
x2 = 0.0807	829.4	825.2	820.9	817	5.22	4.45	3.98	3.04
x2 = 0.1596	846.1	841.8	837.5	833.5	5.27	4.66	4.23	3.21
x2 = 0.2397	864.1	859.8	855.3	851.2	5.38	4.89	4.39	3.42
x2 = 0.3501	890.9	886.5	881.9	877.7	5.94	5.44	4.7	3.87
x2 = 0.4398	914.4	910.1	905.3	901.2	6.95	6.21	5.2	4.45
x2 = 0.5602	948.9	944.5	939.8	935.5	9.32	7.87	6.43	5.64
x2 = 0.6501	977.1	972.8	968.2	963.9	11.89	9.69	7.84	6.89
x2 = 0.7402	1007.7	1003.6	999.1	994.9	15.13	12.04	9.71	8.46
x2 = 0.8501	1048.8	1044.9	1040.6	1036.6	19.86	15.65	12.54	10.82
x2 = 0.9397	1085.7	1082.1	1078.4	1074.6	24.15	19.2	15.27	13.1

CCCCC(C)O (configuration not stated) [2-hexanol] + OCCOCCO
Settings	mass density, 298.15 K [kg/m3]	mass density, 303.15 K [kg/m3]	mass density, 308.15 K [kg/m3]	mass density, 313.15 K [kg/m3]	viscosity, 298.15 K [mPa·s]	viscosity, 303.15 K [mPa·s]	viscosity, 308.15 K [mPa·s]	viscosity, 313.15 K [mPa·s]
x2 = 0	810.1	806.1	802.1	798	4.1	3.41	2.82	2.22
x2 = 0.0809	828.8	824.7	820.3	816.1	4.24	3.93	3.13	2.26
x2 = 0.1597	847.7	843.5	839.1	834.7	4.39	4.19	3.38	2.47
x2 = 0.2398	867.8	863.5	858.9	854.4	4.71	4.43	3.66	2.85
x2 = 0.3501	896.9	892.5	887.8	883.1	5.69	5.03	4.24	3.63
x2 = 0.4398	921.9	917.6	912.7	908.2	7.07	5.96	4.99	4.5
x2 = 0.5602	957.6	953.2	948.4	943.7	9.89	8	6.49	5.99
x2 = 0.6501	985.9	981.6	976.9	972.3	12.69	10.16	8.04	7.37
x2 = 0.7403	1015.9	1011.7	1007.2	1002.7	16.04	12.83	9.96	8.96
x2 = 0.8502	1054.8	1050.9	1046.6	1042.5	20.63	16.56	12.76	11.2
x2 = 0.9398	1088.6	1084.9	1081.1	1077.5	24.55	19.77	15.38	13.28

CCC(C)O (configuration not stated) [butan-2-ol] + OCCOCCO
x2 = 0
Settings	mass density [kg/m3]	viscosity [mPa·s]
298.15 K	802.7	3.1
303.15 K	798.3	2.6
308.15 K	793.6	2.15
313.15 K	789.1	1.73

OCCOCCO [diethylene glycol] + CC(C)O
Settings	mass density, 298.15 K [kg/m3]	mass density, 303.15 K [kg/m3]	mass density, 308.15 K [kg/m3]	mass density, 313.15 K [kg/m3]	viscosity, 298.15 K [mPa·s]	viscosity, 303.15 K [mPa·s]	viscosity, 308.15 K [mPa·s]	viscosity, 313.15 K [mPa·s]
x1 = 0.0808	814.9	810.2	805.2	800.5	2.71	2.54	2.22	1.9
x1 = 0.1599	846.9	841.8	836.5	831.7	3.59	3.38	2.89	2.52
x1 = 0.2398	877.8	872.4	867	862	4.73	4.35	3.63	3.25
x1 = 0.3501	918.3	912.7	907.3	902.2	6.67	5.93	4.83	4.41
x1 = 0.4399	949.6	943.9	938.5	933.4	8.59	7.44	6	5.49
x1 = 0.5596	988.8	983.3	978.1	973.1	11.59	9.8	7.84	7.09
x1 = 0.6499	1016.8	1011.5	1006.4	1001.4	14.2	11.84	9.47	8.44
x1 = 0.7396	1043.2	1038.2	1033.4	1028.8	17.08	14.1	11.27	9.89
x1 = 0.8501	1073.9	1069.5	1065.2	1061.1	21.04	17.19	13.7	11.84
x1 = 0.9402	1097.4	1093.8	1089.8	1086.2	24.61	19.94	15.82	13.58
x1 = 1	1112.4	1109.1	1105.6	1102.3	27.15	21.87	17.26	14.81

OCCOCCO [diethylene glycol] + CCC(C)O
Settings	mass density, 298.15 K [kg/m3]	mass density, 303.15 K [kg/m3]	mass density, 308.15 K [kg/m3]	mass density, 313.15 K [kg/m3]	viscosity, 298.15 K [mPa·s]	viscosity, 303.15 K [mPa·s]	viscosity, 308.15 K [mPa·s]	viscosity, 313.15 K [mPa·s]
x1 = 0.0808	829.4	824.8	819.9	815.3	3.69	–	–	–
x1 = 0.0833	–	–	–	–	–	3.1	2.65	2.22
x1 = 0.1598	855.3	850.5	845.5	840.7	4.42	–	–	–
x1 = 0.161	–	–	–	–	–	3.69	3.17	2.74
x1 = 0.2398	881.3	876.3	871.2	866.3	5.33	–	–	–
x1 = 0.2402	–	–	–	–	–	4.41	3.77	3.31
x1 = 0.3494	916.4	911.3	906.2	901.2	6.94	–	–	–
x1 = 0.3498	–	–	–	–	–	5.69	4.77	4.25
x1 = 0.4399	944.9	939.8	934.7	929.8	8.61	–	–	–
x1 = 0.441	–	–	–	–	–	7.03	5.79	5.16
x1 = 0.5591	981.9	977.8	971.9	967.1	11.34	–	–	–
x1 = 0.5609	–	–	–	–	–	9.25	7.44	6.62
x1 = 0.6498	–	–	–	–	–	11.31	8.98	7.93
x1 = 0.6501	1009.7	1004.9	1000.1	995.4	13.86	–	–	–
x1 = 0.7398	–	–	–	–	–	13.64	10.74	9.42
x1 = 0.7399	1036.7	1032.3	1027.6	1023.1	16.72	–	–	–
x1 = 0.8499	1069.2	1065.1	1060.9	1056.8	20.75	–	–	–
x1 = 0.8501	–	–	–	–	–	16.88	13.24	11.5
x1 = 0.9399	1095.3	1091.7	1087.9	1084.2	24.46	–	–	–
x1 = 0.9405	–	–	–	–	–	19.8	15.56	13.42
x1 = 1	1112.4	1109.1	1105.6	1102.3	27.15	21.87	17.26	14.81

OCCOCCO [diethylene glycol] + CCCC(C)O
Settings	mass density, 298.15 K [kg/m3]	mass density, 303.15 K [kg/m3]	mass density, 308.15 K [kg/m3]	mass density, 313.15 K [kg/m3]	viscosity, 298.15 K [mPa·s]	viscosity, 303.15 K [mPa·s]	viscosity, 308.15 K [mPa·s]	viscosity, 313.15 K [mPa·s]
x1 = 0.0811	827.8	823.5	818.9	814.6	3.85	3.17	2.84	2.47
x1 = 0.1598	849.9	845.5	840.8	836.5	4.44	3.55	3.29	2.93
x1 = 0.2399	872.9	868.4	863.5	859.2	5.12	4.05	3.79	3.44
x1 = 0.3501	905.1	900.6	895.7	891.3	6.37	5.03	4.58	4.26
x1 = 0.4398	931.9	927.5	922.6	918.2	7.79	6.17	5.42	5.08
x1 = 0.5599	968.7	964.2	959.5	955.2	10.37	8.3	6.9	6.46
x1 = 0.6501	997.1	992.8	988.1	983.9	12.9	10.35	8.33	7.74
x1 = 0.7399	1025.8	1021.7	1017.4	1013.1	15.92	12.81	10.08	9.22
x1 = 0.8499	1061.8	1058.1	1053.9	1050	20.26	16.33	12.72	11.36
x1 = 0.9399	1091.9	1088.3	1084.7	1081.1	24.28	19.56	15.31	13.35
x1 = 1	1112.4	1109.1	1105.6	1102.3	27.14	21.87	17.26	14.81

OCCOCCO [diethylene glycol] + CCCCC(C)O
x1 = 1
Settings	mass density [kg/m3]	viscosity [mPa·s]
298.15 K	1112.4	27.15
303.15 K	1109.1	21.87
308.15 K	1105.6	17.26
313.15 K	1102.3	14.81

OCCOCCO [diethylene glycol] + CCCCCC(C)O
x1 = 1
Settings	mass density [kg/m3]	viscosity [mPa·s]
298.15 K	1112.4	27.14
303.15 K	1109.1	21.87
308.15 K	1105.6	17.26
313.15 K	1102.3	14.81

CCCC(C)O (configuration not stated) [pentan-2-ol] + OCCOCCO
x2 = 0
Settings	mass density [kg/m3]	viscosity [mPa·s]
298.15 K	805.4	3.2
303.15 K	801.2	2.8
308.15 K	796.6	2.33
313.15 K	792.5	1.99
